Results as given in publication PMC4306533, “Distinct Features of Cap Binding by eIF4E1b Proteins” (Journal of Molecular Biology, 2015).

What was measured:
[1] = system: XeIF4E1bΔN27; test: time-synchronized fluorescence titration of cap analogue binding; set-up: species or system Xenopus laevis; details: for Ratio Kas (X4E1a) to Kas (X4E1bΔN27) / Kas + glycerol XeIF4E1bΔN27 / ΔΔG^o + glycerol XeIF4E1bΔN27: 10% glycerol; for Kas + glycerol XeIF4E1bΔN27: equilibrium association constant; for ΔΔG^o + glycerol XeIF4E1bΔN27: change relative to m^7GTP
Excerpt: (§1) The time-synchronized fluorescence titration method, widely used to determine the affinity constants of cap–eIF4E complexes [[20,22–26]], measures the quenching of the intrinsic fluorescence of tryptophan residues due to cap binding (Fig. S2). Knowledge of the equilibrium association constant Kas enables the calculation of the free-energy changes involved in the interaction between eIF4E and ligand, according to the standard equation ΔG° = − RTlnKas.
(§2) For human eIF4E1a and eIF4E1b and also for Xenopus eIF4E1a and its mutated forms, measurements were carried out using 0.1 μM protein in 50 mM Hepes/KOH (pH 7.2), 134.5 mM KCl, 0.5 mM EDTA and 1 mM DTT. For Xenopus eIF4E1b(ΔN27), the concentration was 0.2 μM and glycerol was added to the buffer to 10% (v/v) final concentration. […] Fluorescence of measured samples was excited at 280 nm (2.5 nm bandwidth) and detected at 337 nm or 330 nm (4 nm bandwidth), thus reducing the signal originated from the free cap analogues. Measurements were carried out on a LS-55 spectrofluorometer (Perkin Elmer Co.) using freshly prepared proteins, and the fluorescence intensities were corrected for sample dilution and the inner filter effect.
(§3) Equilibrium association constants (Kas) were determined by fitting the theoretical dependence of fluorescence intensity on the total concentration of the cap analogue to the experimental data points, according to the equation described previously (see Ref. [22] and Fig. S2c).
(§4) The final Kas was calculated as a weighted average of 2–6 independent titrations with the weights taken as the reciprocal of the numerical standard deviation squared. Numerical, nonlinear least-squares regression analysis was performed using Origin 6.0 (Microcal Software Inc.). Obtained association constants were used to determine the Gibbs free energy according to the standard equation ΔG° = − RTlnKas.

[2] = system: heIF4E1b; test: as above; set-up: species or system human; details: without glycerol
Excerpt: as §1, §2, §3, §4

[3] = system: XeIF4E1a; test: as above; set-up: species or system Xenopus laevis; details: without glycerol
Excerpt: as §1, §2, §3, §4

[4] = biological target: T1, heIF4E1a (Homo sapiens, UniProt P06730); test: as above; details: for Kas − glycerol heIF4E1a: equilibrium association constant, buffer without glycerol; for ΔΔG^o − glycerol heIF4E1a: without glycerol
T1 construct: made in house; host or cells: E. coli Rosetta2(DE3)
Excerpt: as §1, §2, §3, §4

[5] = biological target: T2, XeIF4E1a (Xenopus laevis, UniProt P48597); test: as above; details: for Kas + glycerol XeIF4E1a / Kas − glycerol XeIF4E1a: equilibrium association constant; for Kas + glycerol XeIF4E1a / ΔΔG^o + glycerol XeIF4E1a: 10% glycerol; for Kas − glycerol XeIF4E1a: buffer without glycerol; for ΔΔG^o − glycerol XeIF4E1a: without glycerol
T2 construct: made in house; host or cells: E. coli Rosetta2(DE3)
Excerpt: as §1, §2, §3, §4

[6] = biological target: T3, heIF4E1b (Homo sapiens, UniProt A6NMX2); test: as above; details: for Kas − glycerol heIF4E1b: equilibrium association constant, buffer without glycerol; for ΔΔG^o − glycerol heIF4E1b: change relative to m^7GTP, without glycerol
T3 construct: made in house; host or cells: E. coli Rosetta2(DE3)
T3 sequence (A6NMX2 1-242): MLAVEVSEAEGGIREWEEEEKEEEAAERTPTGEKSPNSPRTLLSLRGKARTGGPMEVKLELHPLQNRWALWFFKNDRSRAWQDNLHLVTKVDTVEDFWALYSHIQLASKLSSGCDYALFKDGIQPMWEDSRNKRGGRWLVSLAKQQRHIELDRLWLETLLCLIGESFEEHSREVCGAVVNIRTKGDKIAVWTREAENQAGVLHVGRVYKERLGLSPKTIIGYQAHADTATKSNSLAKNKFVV
Excerpt: as §1, §2, §3, §4

[7] = biological target: T4, X4E1a6 (E101S/K102R/S195A/M82S/T206L/T207S) (Xenopus laevis, UniProt P48597, E101S/K102R/M82S/S195A/T206L/T207S); test: fluorescence titration, XeIF4E1a mutant; assay type: binding; details: for Kas X4E1a6: mutant (E101S/K102R/S195A/M82S/T206L/T207S) of XeIF4E1a
T4 construct: made in house; host or cells: E. coli Rosetta2(DE3)
Excerpt: (§5) We tested the effect on cap-binding activity of these positions in the fluorescence assay with six mutated recombinant versions of Xenopus eIF4E1a (Fig. S4). The amino acids were introduced in XeIF4E1a sequentially in the order: E101S/K102R/S195A/M82S/T206L/T207S (numbering of the XeIF4E1a sequence is shifted backward by 4 amino acids relative to XeIF4E1b). […] The biggest contribution to the weaker cap binding of XeIF4E1a, in each case about 20%, resulted from changing Glu101 to Ser and Thr206 to Leu coupled with Thr207 to Ser, with the remaining mutations having only minor effects. […] Glu101 is a solvent-accessible amino acid and is proximal to Trp98 in the S3-S4 loop. […] Attenuation of the cap-binding affinity of XeIF4E1a resulting from mutating Thr206 and Thr207 is consistent with our results mentioned above showing significant influence of C-terminal loop residues on binding phosphate and the second nucleotide.
(§6) For human eIF4E1a and eIF4E1b and also for Xenopus eIF4E1a and its mutated forms, measurements were carried out using 0.1 μM protein in 50 mM Hepes/KOH (pH 7.2), 134.5 mM KCl, 0.5 mM EDTA and 1 mM DTT. For Xenopus eIF4E1b(ΔN27), the concentration was 0.2 μM and glycerol was added to the buffer to 10% (v/v) final concentration. […] The gradually increasing concentration of cap analogue quenches protein fluorescence without shifting the spectrum maximum, while at high concentrations, the fluorescence signal of free cap analogue dominates over the fluorescence from other solution components including free eIF4E and eIF4E in complex with cap (Fig. S2a). Fluorescence of measured samples was excited at 280 nm (2.5 nm bandwidth) and detected at 337 nm or 330 nm (4 nm bandwidth), thus reducing the signal originated from the free cap analogues. Measurements were carried out on a LS-55 spectrofluorometer (Perkin Elmer Co.) using freshly prepared proteins, and the fluorescence intensities were corrected for sample dilution and the inner filter effect.
(§7) Equilibrium association constants (Kas) were determined by fitting the theoretical dependence of fluorescence intensity on the total concentration of the cap analogue to the experimental data points, according to the equation described previously (see Ref. [22] and Fig. S2c). […] Along with Kas and the concentration of the active protein [P0^act], other parameters such as fL and ∆f = fPact − fPL are also gained from the fit, where fL represents the fluorescence efficiency of free cap analogue and ∆f represents the difference between the fluorescence efficiencies of the apo-protein and the complex (Fig. S2c).
as §4

[8] = biological target: T5, X4E1a1’ (K102R) (Xenopus laevis, UniProt P48597, K102R); test: fluorescence titration, XeIF4E1a mutant; assay type: binding; details: mutant (K102R) of XeIF4E1a
T5 construct: made in house; host or cells: E. coli Rosetta2(DE3)
Excerpt: as §5, §6, §7, §4

[9] = biological target: T6, X4E1a1 (E101S) (Xenopus laevis, UniProt P48597, E101S); test: fluorescence titration, XeIF4E1a mutant; assay type: binding; details: mutant (E101S) of XeIF4E1a
T6 construct: made in house; host or cells: E. coli Rosetta2(DE3)
Excerpt: as §5, §6, §7, §4

[10] = biological target: T7, X4E1a2 (E101S/K102R) (Xenopus laevis, UniProt P48597, E101S/K102R); test: fluorescence titration, XeIF4E1a mutant; assay type: binding; details: mutant (E101S/K102R) of XeIF4E1a
T7 construct: made in house; host or cells: E. coli Rosetta2(DE3)
Excerpt: as §5, §6, §7, §4

[11] = biological target: T8, X4E1a3 (E101S/K102R/S195A) (Xenopus laevis, UniProt P48597, E101S/K102R/S195A); test: fluorescence titration, XeIF4E1a mutant; assay type: binding; details: mutant (E101S/K102R/S195A) of XeIF4E1a
T8 construct: made in house; host or cells: E. coli Rosetta2(DE3)
Excerpt: as §5, §6, §7, §4

[12] = biological target: T9, X4E1a4 (E101S/K102R/S195A/M82S) (Xenopus laevis, UniProt P48597, E101S/K102R/M82S/S195A); test: fluorescence titration, XeIF4E1a mutant; assay type: binding; details: mutant (E101S/K102R/S195A/M82S) of XeIF4E1a
T9 construct: made in house; host or cells: E. coli Rosetta2(DE3)
Excerpt: as §5, §6, §7, §4

T6 sequence (P48597 whole entry E101S): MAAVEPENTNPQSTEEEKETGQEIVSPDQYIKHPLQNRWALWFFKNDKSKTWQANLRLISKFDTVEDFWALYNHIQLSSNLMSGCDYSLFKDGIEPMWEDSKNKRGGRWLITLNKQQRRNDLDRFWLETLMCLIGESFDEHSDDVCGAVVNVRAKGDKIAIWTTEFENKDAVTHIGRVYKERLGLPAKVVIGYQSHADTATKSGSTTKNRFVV
T4 sequence (P48597 whole entry M82S/E101S/K102R/S195A/T206L/T207S): as the sequence (P48597 whole entry E101S) above, with M82S, K102R, S195A, T206L, T207S counted along it
T2 sequence (P48597 whole entry): as the sequence (P48597 whole entry E101S) above, with S101E counted along it
T5 sequence (P48597 whole entry K102R): as the sequence (P48597 whole entry E101S) above, with S101E, K102R counted along it
T7 sequence (P48597 whole entry E101S/K102R): as the sequence (P48597 whole entry E101S) above, with K102R counted along it
T8 sequence (P48597 whole entry E101S/K102R/S195A): as the sequence (P48597 whole entry E101S) above, with K102R, S195A counted along it
T9 sequence (P48597 whole entry M82S/E101S/K102R/S195A): as the sequence (P48597 whole entry E101S) above, with M82S, K102R, S195A counted along it
T1 sequence (P06730 whole entry): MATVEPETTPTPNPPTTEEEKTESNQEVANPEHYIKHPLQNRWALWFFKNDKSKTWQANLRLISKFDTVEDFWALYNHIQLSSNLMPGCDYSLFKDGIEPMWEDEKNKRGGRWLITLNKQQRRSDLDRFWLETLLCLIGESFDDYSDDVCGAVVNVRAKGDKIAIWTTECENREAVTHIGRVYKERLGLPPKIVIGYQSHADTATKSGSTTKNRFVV

SMILES | Ratio Kas (X4E1a) to Kas (X4E1bΔN27) [1] | Kas + glycerol XeIF4E1bΔN27 [1] | Ratio Kas (h4E1a) to Kas (h4E1b) [2] | Ratio Kas (h4E1a) to Kas (X4E1a) [3] | Kas − glycerol heIF4E1a [4] | Kas + glycerol XeIF4E1a [5] | Kas − glycerol XeIF4E1a [5] | Kas − glycerol heIF4E1b [6] | Kas X4E1a6 [7] | Kas X4E1a1’ [8] | Kas X4E1a1 [9] | Kas X4E1a2 [10] | ΔΔG^o + glycerol XeIF4E1bΔN27 [1] | ΔΔG^o − glycerol heIF4E1a ([4]; change relative to m^7GTP) | ΔΔG^o + glycerol XeIF4E1a ([5]; change relative to m^7GTP) | ΔΔG^o − glycerol XeIF4E1a ([5]; change relative to m^7GTP) | ΔΔG^o − glycerol heIF4E1b [6] | Kas X4E1a3 [11] | Kas X4E1a4 [12] | further results
Cn1c[n+]([C@@H]2O[C@H](COP(=O)(O)OP(=O)(O)OP(=O)(O)OP(=O)(O)OP(=O)(O)O)[C@@H](O)[C@H]2O)c2nc(N)[nH]c(=O)c21 [m^7Gp5] | 3.50 | 65.6 ± 4.2 μM^− 1 | 3.73 | 1.44 | 547 ± 31 μM^− 1 | 230 ± 31 μM^− 1 | 378 ± 44 μM^− 1 | 146.6 ± 9.9 μM^− 1 | 190 ± 6 µM⁻¹ | 382 ± 16 µM⁻¹ | 279 ± 34 µM⁻¹ | 280 ± 11 µM⁻¹ |  |  |  |  |  |  |  | 
CN(C)c1nc2c(c(=O)[nH]1)[n+](C)cn2[C@@H]1O[C@H](COP(=O)(O)OP(=O)(O)OP(=O)(O)O)[C@@H](O)[C@H]1O [m^2,2,7GTP] | 0.70 | 0.253 ± 0.046 μM^− 1 | 1.33 | 1.22 | 0.362 ± 0.008 μM^− 1 | 0.176 ± 0.011 μM^− 1 | 0.295 ± 0.021 μM^− 1 | 0.272 ± 0.009 μM^− 1 | 0.185 ± 0.012 µM⁻¹ | 0.268 ± 0.012 µM⁻¹ | 0.350 ± 0.015 µM⁻¹ | 0.306 ± 0.046 µM⁻¹ | 2.00 ± 0.11 kcal/mol | 3.052 ± 0.045 kcal/mol | 2.844 ± 0.042 kcal/mol | 2.897 ± 0.051 kcal/mol | 2.557 ± 0.041 kcal/mol | 0.193 ± 0.019 µM⁻¹ | 0.317 ± 0.054 µM⁻¹ | 
CCn1c[n+]([C@@H]2O[C@H](COP(=O)(O)OP(=O)(O)OP(=O)(O)O)[C@@H](O)[C@H]2O)c2nc(N)[nH]c(=O)c21 [et^7GTP] | 2.20 | 2.26 ± 0.20 μM^− 1 | 1.78 | 1.65 | 13.04 ± 0.31 μM^− 1 | 4.97 ± 0.22 μM^− 1 | 7.89 ± 0.57 μM^− 1 | 7.34 ± 0.34 μM^− 1 | 4.41 ± 0.16 µM⁻¹ | 7.38 ± 0.18 µM⁻¹ | 7.14 ± 0.63 µM⁻¹ | 7.132 ± 0.088 µM⁻¹ | 0.722 ± 0.059 kcal/mol | 0.965 ± 0.045 kcal/mol | 0.900 ± 0.035 kcal/mol | 0.984 ± 0.050 kcal/mol | 0.639 ± 0.045 kcal/mol | 6.23 ± 0.17 µM⁻¹ | 8.21 ± 0.51 µM⁻¹ | fold decrease of association constant relative to m^7GTP ([1]; N^7-methyl replaced by ethyl): 3 fold; fold decrease of association constant relative to m^7GTP ([4]; N^7-methyl replaced by ethyl): approximately 5 fold; fold decrease of association constant relative to m^7GTP ([5]; N^7-methyl replaced by ethyl): approximately 5 fold; fold decrease of association constant relative to m^7GTP ([6]; N^7-methyl replaced by ethyl): 3 fold
CO[C@@H]1[C@H](O)[C@@H](COP(=O)(O)OP(=O)(O)OP(=O)(O)OC[C@H]2O[C@@H](n3c[n+](C)c4c(=O)[nH]c(N)nc43)[C@H](O)[C@@H]2O)O[C@H]1n1cnc2c(=O)[nH]c(N)nc21 [m^7Gpppm^2′-OG] |  |  | 1.34 |  | 4.77 ± 0.13 μM^− 1 | 2.189 ± 0.026 μM^− 1 |  | 3.568 ± 0.071 μM^− 1 |  |  |  |  |  |  |  |  |  |  |  | ΔΔG^o − glycerol heIF4E1a ([4]; change relative to m^7Gp3G): 0.128 ± 0.041 kcal/mol; ΔΔG^o + glycerol XeIF4E1a ([5]; change relative to m^7Gp3G): 0.026 ± 0.018 kcal/mol
Cn1c[n+]([C@@H]2O[C@H](COP(=O)([O-])OP(=O)(O)OP(=O)(O)O)[C@@H](O)[C@H]2O)c2nc(N)[nH]c(=O)c21 [m^7GTP] |  | 7.80 ± 0.41 μM^− 1 |  |  |  | 23.34 ± 0.88 μM^− 1 | 42.8 ± 2.0 μM^− 1 | 22.0 ± 1.4 μM^− 1 | 19.8 ± 0.4 µM⁻¹ | 34.3 ± 1.7 µM⁻¹ | 33.58 ± 0.66 µM⁻¹ | 32.76 ± 0.51 µM⁻¹ |  |  |  |  |  | 28.1 ± 1.5 µM⁻¹ | 26.7 ± 2.2 µM⁻¹ | decrease of association constant compared to wild-type XeIF4E1a ([7]; all six residues replaced): 50%
